# Laboratory results reported in article PMC10541198, “Specific quinone reductase 2 inhibitors reduce metabolic burden and reverse Alzheimer’s disease phenotype in mice” (The Journal of Clinical Investigation, 2023).
# What was measured:
# QR2 = biological target: T1, QR2 (Homo sapiens, UniProt P16083); assay: QR2 activity assay, BNAH fluorescence (standard/primary); assay type: biochemical; conditions: Figure 2D; readout not stated
# T1 construct: purchased Sigma-Aldrich
# T1 sequence (P16083 1-231): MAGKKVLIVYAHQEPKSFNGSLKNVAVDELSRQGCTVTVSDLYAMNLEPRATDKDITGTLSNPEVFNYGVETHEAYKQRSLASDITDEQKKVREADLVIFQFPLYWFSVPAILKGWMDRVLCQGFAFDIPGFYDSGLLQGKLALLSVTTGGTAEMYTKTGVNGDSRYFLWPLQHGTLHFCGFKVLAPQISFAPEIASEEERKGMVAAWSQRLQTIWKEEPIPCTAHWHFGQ
# From the text: (§1) A drug discovery campaign strategy was initiated to screen compounds for QR2-specific, cell-free inhibition and in vitro activity, followed by SAR optimization (Figure 2A) to achieve highly specific and potent QR2 inhibitor synthesis. In order to establish a varied and chemically amenable starting point, we developed a high-throughput QR2 assay (Supplemental Methods) that we screened against a library with approximately 200,000 compounds. […] Compounds that replicated the initial hit result were then assayed similarly against QR1 to evaluate compound specificity (Figure 2B). From the HTS, a chemically tractable and attractive series of compounds containing a sulfone flanked by an amine and a heterocycle were identified and selected for SAR development (Figure 2C, Supplemental Methods, Supplemental Table 1, and Supplemental Table 2). […]
# High Throughput Screen (H TS)
# The enzymatic activity of QR 2 (10 nM) was measur ed using menadione (both Sigm a -Aldrich) as subst r at e and dihydro- benzylnicotinamide (BNAH; Tocris) as co-substrate(62). The reaction was performed in 50 mM Tri s HCl, 150 mM NaCl 0.01%Tween- 20 pH=8.5 (Sigma-Aldrich) at r oom tem per atur e. Briefl y, 3 µL of menadione alone (200 µM) or a mixture of menadione and QR2 (200 µM of […]
# (§2) menadione and 10 nM of QR2) were dispensed in 1536-well black Nunc plates (Thermo-Fisher) using aMultidrop™ Combi Reagent Dispenser (Thermo-Fisher) and pre-incubated with compounds for 10min. BNAH (200µM) was t hen added (3 µL) to the reaction using a BioNex Solutions BNX1536plate washer and the plates were incubated for another 10 min. Fluorescence intensity was followed in a PHERAstar FS multi-mode plate reader (BMG Labtech) us i ng an optic module with excitation at 360 nm and emission at 470 nm. The initial HTS includedapproximately 200,000 compounds at a single concentrationof 5 µM. The chemical libraries used were Selleck Chemicals Bioactives, the Drug-like set from Enamine, HitFinder collection from Maybridge, Spectrum Collection from Microsource, Lopa c from Sigma -Aldrich and the diversity set s from Chem Div and Che m Br idge .
# Initial ‘‘hit’’ compounds were defined as causing >30% reduction of enzyme activity. Compounds suspected to be fluorescent were re -assayed in an absorbance assay at 350 nm using the same reaction but in a higher volume (100 µL), in a transparent plate (Greiner Bio- One). ‘‘Hit’’ compounds resulting from both the fluorescence and absorbance assay wer e t ested in a concentration- response, and IC50 values were de t er mi ne d. In parallel, the same concentration response methodologywas appliedin a selectivity assay where QR2 enzymewas replaced byQR1 […]
# Chromatography System, with UV/Vis detector 2489, using XBridge® Prep C18 10 μm 10x250 mm […]
# was monitored by Wat er s UPLC-MS system: Acquity UPLC® H class with PDA detector, and using […]
# [1] = Solubility in water / saline; assay type: physicochemical
# QR1 = biological target: T2, QR1 (Homo sapiens, UniProt P15559); assay: QR1 selectivity assay, fluorescence; assay type: biochemical; conditions: Figure 2D; readout not stated
# T2 construct: purchased Sigma-Aldrich
# T2 sequence (P15559 whole entry): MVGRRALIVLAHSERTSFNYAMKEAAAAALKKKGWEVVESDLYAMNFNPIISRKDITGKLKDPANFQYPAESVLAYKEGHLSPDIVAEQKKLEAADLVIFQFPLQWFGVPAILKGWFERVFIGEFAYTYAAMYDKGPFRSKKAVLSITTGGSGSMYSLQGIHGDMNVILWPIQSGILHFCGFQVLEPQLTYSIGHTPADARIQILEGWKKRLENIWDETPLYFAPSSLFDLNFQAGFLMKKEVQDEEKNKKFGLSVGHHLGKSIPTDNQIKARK
# From the text: as §1, §2
# Initial ‘‘hit’’ compounds were defined as causing >30% reduction of enzyme activity. Compounds suspected to be fluorescent were re -assayed in an absorbance assay at 350 nm using the same reaction but in a higher volume (100 µL), in a transparent plate (Greiner Bio- One). ‘‘Hit’’ compounds resulting from both the fluorescence and absorbance assay wer e t ested in a concentration- response, and IC50 values were de t er mi ne d. In parallel, the same
SMILES,IC50 (QR2) [µM],solubility in water [1],IC50 (QR1) [µM]
Cc1nc(-c2ccc(C)c(S(=O)(=O)N3CCC(C)CC3)c2)cs1 [YB-104],7.39,–,–
Cc1ccc(-c2cn3cccc(C)c3n2)cc1S(=O)(=O)N1CCN(C)CC1 [YB-540],0.21,water soluble,–
Cc1ccc(-c2nnc(-c3ccccc3)o2)cc1S(=O)(=O)N1CCN(C(=O)c2ccco2)CC1 [YB-789],5.71,–,> 9.99
Cc1ccc(-c2cn3cccc(C)c3n2)cc1S(=O)(=O)N1CCN(C(=O)c2ccco2)CC1 [YB-792],0.008,–,3.33
Cc1ccn2cc(-c3ccc(C)c(S(=O)(=O)NCc4cccnc4)c3)nc2c1 [YB-812],6.92,–,> 9.99
Cc1ccn2cc(-c3ccc(C)c(S(=O)(=O)Nc4ccc(Cl)cc4)c3)nc2c1 [YB-816],> 9.99,–,> 9.99
Cc1ccc(-c2nnc(-c3ccccc3)o2)cc1S(=O)(=O)NCCCN1CCCC1=O [YB-818],> 9.99,–,> 9.99
